Experimental data: PMC3201767 (Chemical communications (Cambridge, England), 2011)

T1: His6-Pd2,6ST(16–497) (Photobacterium damselae, UniProt O66375)
T1 sequence (O66375 16-497): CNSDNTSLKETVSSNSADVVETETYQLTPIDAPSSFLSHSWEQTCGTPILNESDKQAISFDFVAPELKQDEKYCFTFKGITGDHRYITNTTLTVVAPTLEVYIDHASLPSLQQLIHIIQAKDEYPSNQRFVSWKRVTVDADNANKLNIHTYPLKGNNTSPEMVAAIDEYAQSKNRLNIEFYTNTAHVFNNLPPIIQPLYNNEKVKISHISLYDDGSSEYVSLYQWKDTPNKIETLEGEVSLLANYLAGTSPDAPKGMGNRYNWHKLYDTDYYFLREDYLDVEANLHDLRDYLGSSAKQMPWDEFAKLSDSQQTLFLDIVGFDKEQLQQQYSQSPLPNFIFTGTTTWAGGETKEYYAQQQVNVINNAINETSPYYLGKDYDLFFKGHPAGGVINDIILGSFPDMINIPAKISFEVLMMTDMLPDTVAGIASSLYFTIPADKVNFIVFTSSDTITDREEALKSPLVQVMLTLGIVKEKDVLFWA


What was measured:
Assay in all cases: apparent sialyltransferase kinetics
Psp2,6ST(15–501)-His6 = Psp2,6ST(15–501)-His6 (Photobacterium sp. JT-ISH-224, UniProt A8QYL1); assay type: biochemical; conditions: read-out: Psp2,6ST(15-501)-His6; acceptor; donor CMP-Neu5Ac; apparent value
His6-Pd2,6ST(16–497) = target: T1, His6-Pd2,6ST(16–497); assay type: biochemical; conditions: read-out: His6-Pd2,6ST(16-497); acceptor; donor CMP-Neu5Ac; apparent value
[1] = substrate: Cc1cc(=O)oc2cc(O[C@@H]3O[C@H](CO)[C@@H](O[C@@H]4O[C@H](CO)[C@H](O)[C@H](O)[C@H]4O)[C@H](O)[C@H]3O)ccc12; assay type: biochemical, Photobacterium sp. JT-ISH-224; conditions: acceptor; donor CMP-Neu5Ac; apparent value; pH 2.6

| Molecule | Km (Psp2,6ST(15–501)-His6) | Km (His6-Pd2,6ST(16–497)) | Km [1] | kcat [1] | kcat/Km [1] |
| --- | --- | --- | --- | --- | --- |
| CC(=O)N[C@H]1[C@@H](O[C@H](C)[C@H](N)C(=O)O)O[C@H](CO)[C@H](O)[C@@H]1O [compound 13, GalNAcαThr] | 5.9 ± 1.6 mM | 10 ± 1 mM | – | – | – |
| CC(=O)N[C@H]1[C@@H](OC[C@H](N)C(=O)O)O[C@H](CO)[C@H](O)[C@@H]1O [compound 12, GalNAcαSer] | 1.4 ± 0.1 mM | 1.6 ± 0.2 mM | – | – | – |
| GalNAcα2AA [compound 11] | 9.5 ± 2.7 mM | 51 ± 5 mM | – | – | – |
| Psp2,6ST(15–501)-His6 (Photobacterium sp. JT-ISH-224) (protein) CNNSEENTQSIIKNDINKTIIDEEYVNLEPINQSNISFTKHSWVQTCGTQQLLTEQNKESISLSVVAPRLDDDEKYCFDFNGVSNKGEKYITKVTLNVVAPSLEVYVDHASLPTLQQLMDIIKSEEENPTAQRYIAWGRIVPTDEQMKELNITSFALINNHTPADLVQEIVKQAQTKHRLNVKLSSNTAHSFDNLVPILKELNSFNNVTVTNIDLYDDGSAEYVNLYNWRDTLNKTDNLKIGKDYLEDVINGINEDTSNTGTSSVYNWQKLYPANYHFLRKDYLTLEPSLHELRDYIGDSLKQMQWDGFKKFNSKQQELFLSIVNFDKQKLQNEYNSSNLPNFVFTGTTVWAGNHEREYYAKQQINVINNAINESSPHYLGNSYDLFFKGHPGGGIINTLIMQNYPSMVDIPSKISFEVLMMTDMLPDAVAGIASSLYFTIPAEKIKFIVFTSTETITDRETALRSPLVQVMIKLGIVKEENVLFWA | – | – | 0.36 ± 0.07 mM | 1.67 ± 0.167 s⁻¹ | 4830 M⁻¹ s⁻¹ |
